Test systems include IGROV1 ovarian; LOX IMVI melanoma; MALME-3M melanoma; MOLT-4 leukemia; NCI-H23 lung; RPMI-8226 leukemia; RXF 393 renal; SF-268 CNS; SW-620 colon; UO-31 renal.
Holding throughout (experiment): NCI tumour cell line growth inhibition, 48 h

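Dose response: 5 concentrations. Exposure: 48 h. Format: 96-well plates. Endpoint: linear interpolation; highest concentration if not reached. GI50 = concentration required for 50% inhibition of growth. Definition used: TGI = concentration required for complete inhibition of growth.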

Consider `NC(=O)N1N=C2c3ccccc3OC[C@H]2[C@@H]1c1ccccc1`, for which the TGI in the assay on IGROV1 ovarian is > 100 µM; with LOX IMVI melanoma, > 100 µM; in the assay on MALME-3M melanoma, > 100 µM; in the assay on MOLT-4 leukemia it was 97.2 µM; in the assay on NCI-H23 lung it was > 92.4 µM; in the assay with RPMI-8226 leukemia, > 89.3 µM. In addition, the TGI in the assay on RXF 393 renal was 8.7 µM; in the assay with SF-268 CNS it was > 80.4 µM; in the assay with SW-620 colon it was > 100 µM; in the assay on UO-31 renal it was > 100 µM.

Regarding `COc1cc(C(=O)Nc2ccc(-c3nc4ccccc4[nH]3)cc2)cc(OC)c1OC`, the GI50 is 14.1 µM in the assay on IGROV1 ovarian; 11.2 µM with LOX IMVI melanoma; 12 µM with MALME-3M melanoma; 9.82 µM in the assay on MOLT-4 leukemia; 11.9 µM with NCI-H23 lung; 6.35 µM in the assay with RPMI-8226 leukemia. The GI50 is 10.7 µM in the assay on RXF 393 renal, 14.2 µM with SF-268 CNS, 16.9 µM with SW-620 colon and 3.92 µM in the assay with UO-31 renal. In addition, the TGI worked out at 31.5 µM in the assay on IGROV1 ovarian; 30.9 µM in the assay with LOX IMVI melanoma; 31.6 µM in the assay on MALME-3M melanoma; 45.4 µM in the assay on MOLT-4 leukemia; 34.6 µM with NCI-H23 lung; 30.6 µM in the assay with RPMI-8226 leukemia. For the same compound, the TGI worked out at 30.9 µM in the assay with RXF 393 renal, 37.4 µM in the assay on SF-268 CNS, 42.8 µM with SW-620 colon and 16.1 µM in the assay with UO-31 renal.

In the case of `Cc1nc2sc(C(=O)Nc3cccc(Cl)c3)c(N)c2cc1C(O)c1ccccc1` (stereo not given), the GI50 in the assay with IGROV1 ovarian is 2.27 µM; with LOX IMVI melanoma, 0.687 µM; with MALME-3M melanoma, 0.722 µM; with MOLT-4 leukemia, 0.611 µM; in the assay on NCI-H23 lung it was 1.4 µM; with RPMI-8226 leukemia, 0.848 µM. Moreover, the GI50 in the assay with RXF 393 renal is 0.722 µM; with SF-268 CNS, 2.66 µM; in the assay on SW-620 colon, 0.351 µM; in the assay with UO-31 renal, 2.37 µM. Also, the TGI in the assay with IGROV1 ovarian was 17 µM; with LOX IMVI melanoma it was 22.5 µM; in the assay on MALME-3M melanoma, 20.4 µM; with MOLT-4 leukemia, > 100 µM; in the assay with NCI-H23 lung, 19.4 µM; in the assay on RPMI-8226 leukemia it was > 100 µM. Further, the TGI came to 11.5 µM with RXF 393 renal, 28.3 µM with SF-268 CNS, 19.7 µM with SW-620 colon and 15.6 µM in the assay with UO-31 renal.

As for `CCOc1ccc(N=Nc2c(-c3ccccc3)nn(C(=O)CC(=O)Nc3ccccc3Cl)c2-c2ccccc2)cc1`, the TGI in the assay on IGROV1 ovarian, with LOX IMVI melanoma, with MALME-3M melanoma, in the assay with MOLT-4 leukemia, with NCI-H23 lung and in the assay on RPMI-8226 leukemia was > 100 µM throughout. For the same compound, the TGI in the assay on RXF 393 renal, in the assay with SF-268 CNS, in the assay with SW-620 colon and in the assay with UO-31 renal was > 100 µM throughout.

`CC(C)OC(=O)c1cc(NC(=S)OC(C)C)ccc1Cl`: the TGI is > 56.2 µM in the assay on IGROV1 ovarian; 31.2 µM in the assay with LOX IMVI melanoma; > 56.9 µM in the assay with MALME-3M melanoma; > 79.2 µM with MOLT-4 leukemia; 68.1 µM in the assay with NCI-H23 lung; > 76.8 µM with RPMI-8226 leukemia. Further, the TGI is 62.7 µM in the assay on RXF 393 renal, > 59.6 µM in the assay on SF-268 CNS, > 64.6 µM with SW-620 colon and 54.3 µM in the assay on UO-31 renal.

Take `CCCCCCCC(=O)OC[n+]1cccc(-c2c(COC(=O)NC(C)C)c(COC(=O)NC(C)C)c3n2CCC3)c1`: the TGI with IGROV1 ovarian was > 100 µM; in the assay with LOX IMVI melanoma, > 100 µM; with MALME-3M melanoma, > 100 µM; with MOLT-4 leukemia, 99.4 µM; with NCI-H23 lung, > 100 µM; in the assay on RPMI-8226 leukemia, > 100 µM. Also, the TGI with RXF 393 renal is 97.2 µM; with SF-268 CNS, > 100 µM; in the assay on SW-620 colon, > 100 µM; in the assay on UO-31 renal it was > 100 µM.

For `COc1cc(C(=O)/C=C/c2c(C)n([O-])c3ccc(Cl)cc3[n+]2=O)cc(OC)c1OC`, the GI50 in the assay on IGROV1 ovarian is 9.07 µM; in the assay with LOX IMVI melanoma, 5.78 µM; in the assay on MALME-3M melanoma, 36.3 µM; in the assay on MOLT-4 leukemia, 3.06 µM; in the assay on NCI-H23 lung, 7.59 µM; in the assay on RPMI-8226 leukemia, 3.18 µM. Further, the GI50 in the assay with RXF 393 renal was 3.37 µM; in the assay on SF-268 CNS it was 3.53 µM; in the assay on SW-620 colon, 2.57 µM; in the assay with UO-31 renal, 1.82 µM. Moreover, the TGI was > 100 µM in the assay on IGROV1 ovarian; > 100 µM with LOX IMVI melanoma; > 100 µM with MALME-3M melanoma; 27.9 µM in the assay on MOLT-4 leukemia; 68.6 µM in the assay on NCI-H23 lung; 33.4 µM in the assay on RPMI-8226 leukemia. In addition, the TGI turned out to be 91 µM in the assay with RXF 393 renal, 98.7 µM in the assay on SF-268 CNS, 11.7 µM in the assay with SW-620 colon and 18.1 µM in the assay with UO-31 renal.

`COC(=O)C1C(=O)NC2(C)CC1c1ccccc1O2` (stereo not given): the TGI with IGROV1 ovarian, in the assay with LOX IMVI melanoma, with MALME-3M melanoma, with MOLT-4 leukemia, in the assay on NCI-H23 lung and in the assay with RPMI-8226 leukemia was > 100 µM each time. The TGI in the assay with RXF 393 renal, in the assay on SF-268 CNS, in the assay on SW-620 colon and in the assay on UO-31 renal was > 100 µM throughout.
